Peptide text beside a SMILES is read from it. * marks the point of attachment. X1 = O=C1OC2(c3cc(F)c(O)cc3Oc3cc(O)c(F)cc32)c2ccc(N3C(=O)CC(*)C3=O)cc21
Target: T1, NEDD4L WW3 (Homo sapiens, UniProt Q96PU5)
T1 construct: -WW3(497 -530); GST (N, cleaved yes); made in house; host or cells: E. coli Rosetta-pLysS
Test: Fluorescence polarization (FP) anisotropy binding of labeled AMOT PPxY peptides to recombinant NEDD4L WW3 domain
Conditions: for fold reduction of NEDD4L WW3 binding affinity relative to the wt peptide: FP Kd ratio mutant / wt
Protocol: Each dilution series was performed at least in triplicate. […] The mean Kd values are reported as mean ± SEM.

T1 sequence (Q96PU5 497-530 limits assumed): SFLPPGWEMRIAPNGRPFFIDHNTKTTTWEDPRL

Row | SMILES | fold reduction of NEDD4L WW3 binding affinity relative to the wt peptide [fold] | fold tighter binding than any other pairwise AMOT PPxY-NEDD4L WW interaction (PPxY1-WW3 compared with the 11 other pairs of Fig. 3E)
1 | CSCC[C@H](NC(=O)CNC(=O)[C@H](CCCCN)NC(=O)[C@H](Cc1ccccc1)NC(=O)[C@@H]1CCCN1C(=O)[C@H](Cc1ccc(O)cc1)NC(=O)[C@H](CCC(=O)O)NC(=O)[C@@H]1CCCN1C(=O)[C@H](CC(C)C)NC(=O)[C@@H]1CCCN1C(=O)CNC(=O)[C@H](CCCNC(=N)N)NC(=O)[C@H](Cc1c[nH]cn1)NC(=O)[C@H](CCC(=O)O)NC(=O)[C@H](CCSC)NC(=O)[C@@H](N)CSC1CC(=O)N(c2ccc3c(c2)C(=O)OC32c3cc(F)c(O)cc3Oc3cc(O)c(F)cc32)C1=O)C(N)=O (stereo partly shown) [(P/L)PPxY2] (H-C(X1)MEHRGPLPEYPFKGM-NH2; N-terminus and C-terminus assumed) | 2.8 | 
2 | CSCC[C@H](NC(=O)[C@@H](N)CSC1CC(=O)N(c2ccc3c(c2)C(=O)OC32c3cc(F)c(O)cc3Oc3cc(O)c(F)cc32)C1=O)C(=O)N[C@@H](CCC(N)=O)C(=O)N[C@@H](CC(N)=O)C(=O)N[C@@H](CC(N)=O)C(=O)N[C@@H](CCC(=O)O)C(=O)N[C@@H](CCC(=O)O)C(=O)N[C@@H](CC(C)C)C(=O)N1CCC[C@H]1C(=O)N[C@H](C(=O)N[C@@H](Cc1ccc(O)cc1)C(=O)N[C@@H](CCC(=O)O)C(=O)N[C@@H](CCC(=O)O)C(=O)N[C@@H](CCCCN)C(=O)N[C@@H](CCCCN)C(=O)N[C@H](C(N)=O)C(C)C)[C@@H](C)O (stereo partly shown) [A112K] (H-C(X1)MQNNEELPTYEEKKV-NH2; N-terminus and C-terminus assumed) | 8 | 
3 | CSCC[C@H](NC(=O)[C@@H](N)CSC1CC(=O)N(c2ccc3c(c2)C(=O)OC32c3cc(F)c(O)cc3Oc3cc(O)c(F)cc32)C1=O)C(=O)N[C@@H](CCC(N)=O)C(=O)N[C@@H](CC(N)=O)C(=O)N[C@@H](CC(N)=O)C(=O)N[C@@H](CCCCN)C(=O)N[C@@H](CCCCN)C(=O)N[C@@H](CC(C)C)C(=O)N1CCC[C@H]1C(=O)N[C@H](C(=O)N[C@@H](Cc1ccc(O)cc1)C(=O)N[C@@H](CCC(=O)O)C(=O)N[C@@H](CCC(=O)O)C(=O)N[C@@H](C)C(=O)N[C@@H](CCCCN)C(=O)N[C@H](C(N)=O)C(C)C)[C@@H](C)O (stereo partly shown) [E104K/E105K] (H-C(X1)MQNNKKLPTYEEAKV-NH2; N-terminus and C-terminus assumed) | 6 | 
4 | CSCC[C@H](NC(=O)[C@@H](N)CSC1CC(=O)N(c2ccc3c(c2)C(=O)OC32c3cc(F)c(O)cc3Oc3cc(O)c(F)cc32)C1=O)C(=O)N[C@@H](CCC(N)=O)C(=O)N[C@@H](CC(N)=O)C(=O)N[C@@H](CC(N)=O)C(=O)N[C@@H](CCC(=O)O)C(=O)N[C@@H](CCC(=O)O)C(=O)N[C@@H](CC(C)C)C(=O)N1CCC[C@H]1C(=O)N[C@H](C(=O)N[C@@H](Cc1ccc(O)cc1)C(=O)N[C@@H](CCC(=O)O)C(=O)N[C@@H](CCC(=O)O)C(=O)N[C@@H](C)C(=O)N[C@@H](CCCCN)C(=O)N[C@H](C(N)=O)C(C)C)[C@@H](C)O (stereo partly shown) [PPxY1] (H-C(X1)MQNNEELPTYEEAKV-NH2; N-terminus and C-terminus assumed) |  | more than 5 fold
